{"source": "patent US20180311237A1", "about": "“COMPOSITIONS AND METHODS FOR PREVENTING AND TREATING MUCOSITIS AND WEIGHT LOSS” (ST IP Holding AG, priority 2007, published 2018)", "key": {"[1]": {"format": "in vivo", "description": "Ninety-six (96) female nude mice ([…]) were randomly assigned into 8 treatment groups. Each mouse was inoculated with 1×10^6 NCI-H146 (H146) small cell lung cancer cells in a volume of 0.05 mL on their lower left flank with Matrigel. Treatment began once tumors reached a volume of 75-125 mm^3.\nInitiation of drug treatment was designated day 1. Mice in groups 1 and 5 received vehicle by oral gavage once daily on days 1 and 3. […] Mice in groups 5 to 8 received radiation. The radiation was given as 2 doses of 2 Gy/dose on days 2 and 4. This was accomplished by anesthetizing the mice in these groups with ketamine (100 mg/kg) and xylazine (5 mg/kg) and placing them under a lead shield such that the region of the flank with tumor exposed to the radiation. Radiation was delivered using a Philips 160 kV source at a focal distance of approximately 40 cm, and a dose rate of approximately 1.0 Gy/min. Tumours were measured on alternating days throughout the duration of the study. All mice were sacrificed on day 21 and remaining tumours were excised, measured, weighed, photographed and fixed in formalin for later analysis.\nAll animals were weighed every day and their survival recorded, in order to assess possible differences in animal weight among treatment groups as an indication of possible toxicity resulting from the treatments."}, "[2]": {"conditions": "50, 100, 200 or 400 kg/body weight/day orally for 2 consecutive days, observed 30 days", "source_text": "Male Swiss albino mice (Mus musculus), 6-8 weeks old with 25±3 g body weight from an inbred colony (obtained from Hamadard University, Delhi, India) were used for the present study. Animals were maintained under controlled conditions of temperature and light in an animal house and were provided with standard mice feed (procured from Hindustan Lever's Ltd. Delhi, India) and water ad libitum."}, "[3]": {"description": "The general condition and body weights of the mice in all groups were observed daily. The percent change in body weight in each group of mice was recorded every day by dividing the average body weight of those mice on the first day of treatment.", "remark": "listed apart in the source"}, "[4]": {"tested_on": "lipid peroxidation (TBARS)", "description": "Thirty minutes after the last administration, the animals were exposed to 8 Gy gamma radiation. Survival of the animals was recorded for 30 days after irradiation. The reduced glutathione (GSH) and lipid peroxidation (LPO) levels in liver and blood were estimated after 30 minutes of radiation exposure.\nThe absorbance was read at 532 nm."}, "[5]": {"tested_on": "bone marrow cells", "description": "Cytogenetic damage in the bone marrow cells was studied by chromosomal aberration analysis at the end of the experiments. All animals were injected intra-peritoneally (i.p.) with 0.025% colchicine and sacrificed 2 hours later by cervical dislocation. Both femurs were dissected out. Metaphase plates were prepared by the air drying method. Bone marrow from the femur was aspirated, washed in saline, treated hypotonically (0.6% sodium citrate), fixed in 3:1 methanol:acetic acid, dried and stained with 4% Giemsa (Sigma, USA). Chromosomal aberrations were scored under a light microscope. A total of 400 metaphase plates were scored per animal. Different types of aberration-like chromatid breaks, chromosome breaks, fragments, rings, exchanges and dicentrics were scored. When breaks involved both chromatids, it was termed a “chromosome type” aberration, while “chromatid type” aberrations involved only one chromatid. If the deleted portion had no apparent relation to a specific chromosome, it was called a fragment."}, "[6]": {"tested_on": "mice exposed to 10 Gy gamma radiation", "conditions": "for day of first death post-irradiation: 1 h before 10 Gy; for increase in survival compared with the CMC and irradiation group / reduction in animal survival compared with the 100 mg/kg group: thirty-day survival", "method": "Animals of this group received 0.5% carboxymethyl cellulose (CMC) orally before exposure to 10 Gy gamma irradiation.\nA batch of ten animals was irradiated each time at a dose rate of 1.33 Gy/min.\nAfter irradiation, the animals were monitored daily for 30 days for the development of symptoms of radiation sickness and mortality.\nAnimals of this group received 0.5% carboxymethyl cellulose (CMC) orally before exposure to 10 Gy of gamma irradiation.\nAnimals of this group were treated with 1, 5, 10, 25, 50, 100, 150, 200 or 250 mg/kg body weight of DAPR orally once before exposure to 10 Gy of gamma radiation.\nOne hour after the administration of CMC or DAPR, the immobilized animals, achieved by inserting cotton plugs in the restrainer, were whole-body exposed to ^60Co gamma radiation (Theratron, Atomic Energy Agency, Canada) in a specially designed well-ventilated acrylic box. A batch of ten animals was irradiated each time at a dose rate of 1.33 Gy/min.\nInitially 1, 5 and 10 mg/kg DAPR were also evaluated. […] The radioprotective efficacy of DAPR was evaluated by treating mice with 0, 25, 50, 100, 150, 200 and 250 mg/kg body weight DAPR before whole-body exposure to 10 Gy gamma radiation."}, "[7]": {"tested_on": "endogenous spleen colony forming units (CFU-S)", "conditions": "day 10 post-irradiation", "description": "The endogenous spleen colony assay was done according to the method of Till and McCulloch. Endogenous spleen colony forming units (CFU-S) were determined on day 10 after irradiation. Animals were sacrificed by cervical dislocation. Their spleens were removed, weighed and fixed in Bouin's fixative. Grossly visible nodules on the surface of the spleen were counted with the naked eye."}, "[8]": {"conditions": "oral administration with cysteine (Hassan M. Ali et al., 1984); cited from earlier work"}, "[9]": {"tested_on": "bone marrow cells", "remark": "listed apart in the source"}, "[10]": {"conditions": "100 mg/kg body weight/day, 2 days, + gamma radiation"}}, "note": "Read-outs that look alike come from different tables or passages of the source. Marks after values point to notes of the source that are not given here."}
{"smiles": "Cc1c(-c2cnccn2)ssc1=S", "values": [{"measurement": "average loss of starting weight by Day 21", "setting": "[1]; 50 mg/kg po on days 1 and 3, no radiation", "result": 0.1, "unit": "%"}, {"measurement": "average gain of starting weight by Day 21", "setting": "[1]; 50 mg/kg po on days 1 to 20, no radiation", "result": 0.8, "unit": "%"}, {"measurement": "average gain of starting weight by Day 21", "setting": "[1]; 100 mg/kg po on days 1 and 3, no radiation", "result": 4.8, "unit": "%"}, {"measurement": "toxicity based on observations of survival and weight change", "setting": "[1]; 50 or 100 mg/kg po, with or without radiation, 21 days", "result": "no evidence of toxicity"}, {"measurement": "average gain of starting weight by Day 21", "setting": "[1]; radiation (2 Gy days 2 and 4) plus 50 mg/kg on days 1 and 3", "result": 0.8, "unit": "%"}, {"measurement": "average gain of starting weight by Day 21", "setting": "[1]; radiation plus 50 mg/kg on days 1 to 20", "result": 1.4, "unit": "%"}, {"measurement": "average gain of starting weight by Day 21", "setting": "[1]; radiation plus 100 mg/kg on days 1 and 3", "result": 5.1, "unit": "%"}, {"measurement": "toxic effect (mortality or any other sign)", "setting": "[2]", "result": "did not produce any toxic effect"}, {"measurement": "dose up to which no signs of toxicity and no mortality were observed", "setting": "fasted 18 hours, observed 14 days post-drug treatment", "result": "up to 2 g/kg"}, {"measurement": "amount administrable without significant toxicity", "setting": "formulated with carboxymethyl cellulose (CMC)", "result": "up to 2000 mg/kg"}, {"measurement": "Maximum body weight loss in experimental groups", "setting": "[3]; [10]", "result": 22.05, "unit": "%"}, {"measurement": "minimum body weight loss in experimental groups", "setting": "[3]; [10]", "result": 1.7, "unit": "%"}, {"measurement": "increase in body weight from initial body weight at day-30 post-irradiation", "setting": "[3]; drug + 6 Gy", "result": 17, "unit": "%"}, {"measurement": "increase in body weight from initial body weight at day-30 post-irradiation", "setting": "[3]; drug + 8 Gy", "result": 9.5, "unit": "%"}, {"measurement": "increase in body weight from initial body weight at day-30 post-irradiation", "setting": "[3]; drug + 10 Gy", "result": 13.7, "unit": "%"}, {"measurement": "Blood LPO", "setting": "[4]; drug + 6 Gy", "result": "2.44 ± 0.16^c nmol/ml"}, {"measurement": "Liver LPO", "setting": "[4]; drug + 6 Gy", "result": "3.22 ± 0.12^c nmol/mg"}, {"measurement": "Blood LPO", "setting": "[4]; drug + 8 Gy", "result": "3.28 ± 0.16^a nmol/ml"}, {"measurement": "Liver LPO", "setting": "[4]; drug + 8 Gy", "result": "3.80 ± 0.14^c nmol/mg"}, {"measurement": "Blood LPO", "setting": "[4]; drug + 10 Gy", "result": "3.68 ± 0.18^b nmol/ml"}, {"measurement": "Liver LPO", "setting": "[4]; drug + 10 Gy", "result": "5.22 ± 0.27^c nmol/mg"}, {"measurement": "Blood LPO", "setting": "[4]; drug alone, no irradiation", "result": "1.10 ± 0.10", "unit": "nmol/mL"}, {"measurement": "Liver LPO", "setting": "[4]; drug alone, no irradiation", "result": "2.42 ± 0.14", "unit": "nmol/mg"}, {"measurement": "Chromatid breaks", "setting": "[5]; drug (100 mg/kg body weight/day) + 8 Gy", "result": "3.18 ± 0.44^a %"}, {"measurement": "Aberrant cells", "setting": "[5]; drug + 8 Gy", "result": "17.20 ± 1.20^c %"}, {"measurement": "Aberrations per damaged cell", "setting": "[5]; drug + 8 Gy", "result": "2.21 ± 0.20^a"}, {"measurement": "Centric rings", "setting": "[5]; drug + 8 Gy", "result": "1.26 ± 0.28", "unit": "%"}, {"measurement": "Chromosome breaks", "setting": "[5]; drug + 8 Gy", "result": "1.04 ± 0.26^b %"}, {"measurement": "Dicentrics", "setting": "[5]; drug + 8 Gy", "result": "1.10 ± 0.14", "unit": "%"}, {"measurement": "Exchanges", "setting": "[5]; drug + 8 Gy", "result": "1.18 ± 0.32^b %"}, {"measurement": "Fragments", "setting": "[5]; drug + 8 Gy", "result": "28.8 ± 3.20^c %"}, {"measurement": "Polyploidy", "setting": "[5]; drug + 8 Gy", "result": "0.36 ± 0.01^c %"}, {"measurement": "Pulverized cells", "setting": "[5]; drug + 8 Gy", "result": "1.28 ± 0.02^c %"}, {"measurement": "Total aberrations", "setting": "[5]; drug + 8 Gy", "result": "38.10 ± 3.66^c %"}, {"measurement": "Aberrant cells", "setting": "[5]; drug alone", "result": "0.61 ± 0.04", "unit": "%"}, {"measurement": "Aberrations per damaged cell", "setting": "[5]; drug alone", "result": "1.21 ± 0.03^c"}, {"measurement": "Centric rings", "setting": "[5]; drug alone", "result": "0.00 ± 0.00", "unit": "%"}, {"measurement": "Chromatid breaks", "setting": "[5]; drug alone", "result": "0.14 ± 0.01", "unit": "%"}, {"measurement": "Chromosome breaks", "setting": "[5]; drug alone", "result": "0.00 ± 0.00", "unit": "%"}, {"measurement": "Dicentrics", "setting": "[5]; drug alone", "result": "0.00 ± 0.00", "unit": "%"}, {"measurement": "Exchanges", "setting": "[5]; drug alone", "result": "0.00 ± 0.00", "unit": "%"}, {"measurement": "Fragments", "setting": "[5]; drug alone", "result": "0.85 ± 0.04^b %"}, {"measurement": "Polyploidy", "setting": "[5]; drug alone", "result": "0.18 ± 0.02", "unit": "%"}, {"measurement": "Pulverized cells", "setting": "[5]; drug alone", "result": "0.00 ± 0.00", "unit": "%"}, {"measurement": "Total aberrations", "setting": "[5]; drug alone", "result": "0.74 ± 0.02", "unit": "%"}, {"measurement": "day of first death post-irradiation", "setting": "[6]; 5 mg/kg orally once", "result": 7, "unit": "days"}, {"measurement": "increase in survival compared with the CMC and irradiation group", "setting": "[6]; 10 mg/kg, 10 Gy", "result": 20, "unit": "%"}, {"measurement": "increase in survival compared with the CMC and irradiation group", "setting": "[6]; 25 mg/kg, 10 Gy", "result": 30, "unit": "%"}, {"measurement": "increase in survival compared with the CMC and irradiation group", "setting": "[6]; 50 mg/kg, 10 Gy", "result": 40, "unit": "%"}, {"measurement": "thirty-day survival", "setting": "[6]; 100 mg/kg orally before 10 Gy", "result": 60, "unit": "%"}, {"measurement": "day of first death post-irradiation", "setting": "[6]; 100 mg/kg orally once", "result": 11, "unit": "days"}, {"measurement": "increase in survival compared with the non-treated irradiated control", "setting": "[6]; 100 mg/kg, 10 Gy", "result": 60, "unit": "%"}, {"measurement": "reduction in animal survival compared with the 100 mg/kg group", "setting": "[6]; 150 mg, 10 Gy", "result": 20, "unit": "%"}, {"measurement": "mortality within 10 days of irradiation", "setting": "[6]; 150 mg/kg orally before 10 Gy", "result": "did not cause any mortality"}, {"measurement": "reduction in animal survival compared with the 100 mg/kg group", "setting": "[6]; 200 mg, 10 Gy", "result": 20, "unit": "%"}, {"measurement": "mortality within 10 days of irradiation", "setting": "[6]; 200 mg/kg orally before 10 Gy", "result": "did not cause any mortality"}, {"measurement": "reduction in animal survival compared with the 100 mg/kg group", "setting": "[6]; 250 mg/kg, 10 Gy", "result": 30, "unit": "%"}, {"measurement": "optimum protective dose", "setting": "[6]; oral, before 10 Gy", "result": 100, "unit": "mg/kg"}, {"measurement": "Number of macroscopic colonies", "setting": "[7]; drug + 6 Gy", "result": "10.22 ± 0.62"}, {"measurement": "Number of macroscopic colonies", "setting": "[7]; drug + 8 Gy", "result": "13.80 ± 0.84^c"}, {"measurement": "Number of macroscopic colonies", "setting": "[7]; drug + 10 Gy", "result": "15.22 ± 0.77^c"}, {"measurement": "extent and rate of bioavailability", "setting": "[8]", "result": "marked increase"}, {"measurement": "Number of Mn/1000 Cells", "setting": "[9]; drug + 8.0 Gy gamma rays", "result": "6.58 ± 0.64^c"}, {"measurement": "Number of Mn/1000 Cells", "setting": "[9]; drug alone", "result": "0.28 ± 0.01"}]}
